{
  "source": "patent US8563516B2",
  "about": "“Foxp3 peptide vaccine” (OncoTherapy Science, Inc., priority 2007, dated 2013)",
  "key": {"[1]": {"test_system": "293T that transfected both Foxp3 and HLA-A02", "test": "Specific CTL activity against target cells expressing Foxp3 and HLA-A02", "assay_type": "cell-based, human", "experimental": "(§1) To examine the specific CTL activity, IFN-gamma ELISPOT assay and IFN-gamma ELISA were performed. Briefly, peptide-pulsed A24-LCL, T2 cell (1×10^4/well) or the cells endogenously expressing Foxp3 and HLA molecule was prepared as a stimulator cells. Cultured CTL lines in 48 wells were used as a responder cells. IFN-gamma ELISPOT assay and IFN-gamma ELISA were performed under manufacture procedure.\n(§2) The established CTL clone raised against these peptides were examined for their ability to recognize the target cells endogenously expressing Foxp3 and HLA-A*24 or 02. Specific CTL activity against 293T transfected both full length of Foxp3 gene and HLA-A*24 or 02 molecule, which is specific model for the target cells endogenously express Foxp3 and HLA-A*24 or 02, was tested using the CTL lines raised by Foxp3-A02-9-390 (SEQ ID NO: 15) and Foxp3-A02-9-252 (SEQ ID NO: 17) as effector cells. […] Furthermore, these peptides were epitope peptides, which can utilize vaccine targeting Foxp3 expressed T-regs."}, "[2]": {"test_system": "293T that transfected both Foxp3 and HLA-A24", "test": "Specific CTL activity against target cells expressing Foxp3 and HLA-A24", "assay_type": "cell-based, human", "experimental": "as §1, §2"}, "BALB/c mice": {"test_system": "BALB/c mice", "test": "Immunogenicity of epitope peptides in BALB/c mice (IFN-gamma ELISPOT on splenocytes)", "assay_type": "in vivo", "experimental": "IFA-conjugated peptide or IFA only were injected s.c. into BALB/c mice on day 0 and 7. On day 14, splenocytes of vaccinated mice were harvested and used as responder cells. 1×10^4 RLmale1 cells pulsed corresponding peptide (solid square), or no peptide (open square) were used as stimulator cells for IFN-gamma ELISPOT assay. Vaccination using Foxp3-252_h (A) and Foxp3-252_m (B) were performed into five mice (M1-M5) and IFA without any peptide injection were performed into three mice (N1-N3) as control in each assay.\nFor priming the peptide-specific CTLs, immunization was given using 100 mcl vaccine mixture, which contains 50 mcl HLA-A24 restricted peptide and 50 mcl IFA per mouse. The vaccine was injected s.c. into the right flank of mice for the first immunization on day 0 and in the left flank for the second on the day 7. On day 14, splenocytes from vaccinated mice were used as the responder cells, and RLmale1 cells pulsed with or without peptides were used as the stimulator cells for IFN-gamma ELISPOT assay.\nTo evaluate the immunogenicity of Foxp3-9-252 peptide for BALB/c mice, immunization with human Foxp3-9-252 peptide (Foxp3-252_h; KLSAMQAHL)(SEQ ID NO: 17) and mouse Foxp3-9-252 peptide (Foxp3-252_m; KLGAMQAHL) (SEQ ID NO: 89) were performed, respectively. After second injection of peptide, peptide specific CTL activity was determined by IFN-gamma ELISPOT assay (FIG. 5)."}},
  "note": "“Also recorded” adds a separate entry of the source.",
  "data": [
    {"sequence": "KLSAMQAHL (peptide vaccine) [SEQ ID NO 17]", "values": [
      {"measurement": "specific CTL activity of CTL lines raised by peptide", "setting": "[1]; against 293T transfected with both Foxp3 and HLA-A02, FIG. 4A/4B", "result": "high specific CTL activity"},
      {"measurement": "specific CTL activity against controls", "setting": "[1]; controls of FIG. 4A/4B", "result": "did not show significant specific CTL activity"},
      {"measurement": "specific CTL activity of CTL lines raised by peptide", "setting": "[2]; against 293T transfected with both Foxp3 and HLA-A24, FIG. 4C", "result": "high specific CTL activity"},
      {"measurement": "specific CTL activity against controls", "setting": "[2]; controls of FIG. 4C", "result": "did not show significant specific CTL activity"},
      {"measurement": "mice with peptide specific CTL response", "setting": "BALB/c mice; IFA-conjugated peptide s.c. day 0 and 7, splenocytes day 14, RLmale1 stimulator cells, FIG. 5", "result": "three of five"},
      {"measurement": "induction of epitope specific CTLs in vivo", "setting": "BALB/c mice; vaccination of BALB/c mice, discussion, listed as hFoxp3-252", "result": "could induce epitope specific CTLs in vivo; also recorded: superior to mFoxp3-252 peptide"}
    ]}
  ]
}
